Measured values: US20230227427A1, “IL-17A MODULATORS” (SANOFI, priority 2010, published 2023)

Molecular target: T1, human recombinant IL-17A (Homo sapiens, UniProt Q16552)
T1 construct: purchased R&D Systems 7955-IL/CF
T1 sequence (Q16552 24-155): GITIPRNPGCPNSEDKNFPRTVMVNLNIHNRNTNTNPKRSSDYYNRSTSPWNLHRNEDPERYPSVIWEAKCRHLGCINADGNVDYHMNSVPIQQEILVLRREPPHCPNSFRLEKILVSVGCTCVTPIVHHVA
Assay: IL-17A AlphaLISA assay (block binding of IL-17A to its receptor IL-17RA)
Settings: compounds pre-incubated with the IL-17A for 24 h at room temperature; read-out: AlphaLISA pIC50 (converted)
Procedure, shortened: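 Compounds pre-incubated 24 h at RT (30 min where flagged) with human IL-17A (7.5 nM stock) before IL-17RA/Fc (5 nM stock), 90 min. Read by AlphaLISA via anti-Fc acceptor and biotin anti-IL-17A/streptavidin donor beads, 680/615 nm. 4-parameter fit; DMSO and 6 μM reference inhibitor as controls; pIC50.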

| SMILES | IC50 [nM] |
| --- | --- |
| Cn1nccc1C(=O)N[C@H](C(=O)Nc1ccc(-c2cccc(=O)n2C)c(F)c1)C(c1ccccc1)c1ccccc1 [Example 71, (S)—N-(1-((3-fluoro-4-(1-methyl-6-oxo-1,6-dihydropyridin-2-yl)phenyl)amino)-1-oxo-3,3-diphenylpropan-2-yl)-1-methyl-1H-pyrazole-5-carboxamide] | 15.8 |
| Cc1c(-c2ccc(NC(=O)[C@@H](NC(=O)c3ccnn3C)C(c3ccccc3)c3ccccc3)nc2)ccc(=O)n1C [Example 72, (S)—N-(1-((1′,2′-dimethyl-6′-oxo-1′,6′-dihydro-[3,3′-bipyridin]-6-yl)amino)-1-oxo-3,3-diphenylpropan-2-yl)-1-methyl-1H-pyrazole-5-carboxamide] | 79.4 |
| Cc1cncc(C)c1-c1ccc(NC(=O)[C@@H](NC(=O)c2ccnn2C)C(c2ccccc2)c2ccccc2)nc1 [Example 73, (S)—N-(1-((3′,5′-dimethyl-[3,4′-bipyridin]-6-yl)amino)-1-oxo-3,3-diphenylpropan-2-yl)-1-methyl-1H-pyrazole-5-carboxamide] | 25.1 |
| Cc1[nH]ncc1-c1ccc(NC(=O)[C@@H](NC(=O)c2ccnn2C)C(c2ccccc2)c2ccccc2)cc1 [Example 74, (S)-1-methyl-N-(1-((4-(5-methyl-1H-pyrazol-4-yl)phenyl)amino)-1-oxo-3,3-diphenylpropan-2-yl)-1H-pyrazole-5-carboxamide] | 31.6 |
| Cn1nccc1C(=O)N[C@H](C(=O)Nc1ccc(-c2cn(C)c(=O)c3[nH]ncc23)c(F)c1)C(c1ccccc1)c1ccccc1 [Example 75, (S)—N-(1-((3-fluoro-4-(6-methyl-7-oxo-6,7-dihydro-1H-pyrazolo[3,4-c]pyridin-4-yl)phenyl)amino)-1-oxo-3,3-diphenylpropan-2-yl)-1-methyl-1H-pyrazole-5-carboxamide] | 31.6 |
| COc1ncc(-c2ccc(NC(=O)[C@@H](NC(=O)c3ccnn3C)C(c3ccccc3)c3ccccc3)cc2)c2cc[nH]c12 [Example 76, (S)—N-(1-((4-(7-methoxy-1H-pyrrolo[2,3-c]pyridin-4-yl)phenyl)amino)-1-oxo-3,3-diphenylpropan-2-yl)-1-methyl-1H-pyrazole-5-carboxamide] | 631 |
| Cn1nccc1C(=O)N[C@H](C(=O)Nc1ccc(-c2cccc(=O)[nH]2)c(F)c1)C(c1ccccc1)c1ccccc1 [Example 77, (S)—N-(1-((3-fluoro-4-(6-oxo-1,6-dihydropyridin-2-yl)phenyl)amino)-1-oxo-3,3-diphenylpropan-2-yl)-1-methyl-1H-pyrazole-5-carboxamide] | 126 |
| Cn1nccc1C(=O)N[C@H](C(=O)Nc1ccc(-c2ccncc2CC(=O)N2CCCC2)cc1)C(c1ccccc1)c1ccccc1 [Example 78, (S)-1-methyl-N-(1-oxo-1-((4-(3-(2-oxo-2-(pyrrolidin-1-yl)ethyl)pyridin-4-yl)phenyl)amino)-3,3-diphenylpropan-2-yl)-1H-pyrazole-5-carboxamide] | 25.1 |
| Cn1nccc1C(=O)N[C@H](C(=O)Nc1ccc(-c2cc[n+]([O-])cc2CC(=O)N2CCCC2)cc1)C(c1ccccc1)c1ccccc1 [Example 79, (S)-4-(4-(2-(1-methyl-1H-pyrazole-5-carboxamido)-3,3-diphenylpropanamido)phenyl)-3-(2-oxo-2-(pyrrolidin-1-yl)ethyl)pyridine 1-oxide] | 251 |
| Cn1nccc1C(=O)N[C@H](C(=O)Nc1ccc(-c2cc(=O)[nH]cn2)c(F)c1)C(c1ccccc1)c1ccccc1 [Example 80, (S)—N-(1-((3-fluoro-4-(6-oxo-1,6-dihydropyrimidin-4-yl)phenyl)amino)-1-oxo-3,3-diphenylpropan-2-yl)-1-methyl-1H-pyrazole-5-carboxamide] | 316 |
| Cn1nccc1C(=O)N[C@H](C(=O)Nc1ccc(C2=CCOCC2)cc1)C(c1ccccc1)c1ccccc1 [Example 81, (S)—N-(1-((4-(3,6-dihydro-2H-pyran-4-yl)phenyl)amino)-1-oxo-3,3-diphenylpropan-2-yl)-1-methyl-1H-pyrazole-5-carboxamide] | 12.6 |
| COc1cnccc1-c1ccc(NC(=O)C(NC(=O)c2ccnn2C)C2c3ccccc3-c3ccccc32)cc1 (centres unmarked) [Example 82, N-(1-(9H-fluoren-9-yl)-2-((4-(3-methoxypyridin-4-yl)phenyl)amino)-2-oxoethyl)-1-methyl-1H-pyrazole-5-carboxamide] | 25.1 |
| Cc1c(-c2ccc(NC(=O)[C@@H](NC(=O)c3ccnn3C)[C@H]3CC[C@H](C)CC3)cc2F)ccc(=O)n1C [Example 83, N—((S)-2-((4-(1,2-Dimethyl-6-oxo-1,6-dihydropyridin-3-yl)-3-fluorophenyl)amino)-1-((1r,4S)-4-methylcyclohexyl)-2-oxoethyl)-1-methyl-1H-pyrazole-5-carboxamide] | 63.1 |
| Cc1n[nH]c(C)c1-c1ccc(NC(=O)[C@@H](NC(=O)c2ccnn2C)[C@H]2CC[C@H](C)CC2)cc1 [Example 84, N—((S)-2-((4-(3,5-Dimethyl-1H-pyrazol-4-yl)phenyl)amino)-1-((1r,4S)-4-methylcyclohexyl)-2-oxoethyl)-1-methyl-1H-pyrazole-5-carboxamide] | 31.6 |
| Cn1nccc1C(=O)N[C@H](C(=O)Nc1ccc(-c2c[nH]c(=O)c3[nH]ccc23)cc1)[C@H]1CC[C@H](C)CC1 [Example 85, 1-Methyl-N—((S)-1-((1r,4S)-4-methylcyclohexyl)-2-oxo-2-((4-(7-oxo-6,7-dihydro-1H-pyrrolo[2,3-c]pyridin-4-yl)phenyl)amino)ethyl)-1H-pyrazole-5-carboxamide] | 63.1 |
| Cn1nccc1C(=O)N[C@H](C(=O)Nc1ccc(-c2ccncc2CC(=O)N2CCCC2)cc1)[C@H]1CC[C@H](C)CC1 [Example 86, 1-Methyl-N—((S)-1-((1r,4S)-4-methylcyclohexyl)-2-oxo-2-((4-(3-(2-oxo-2-(pyrrolidin-1-yl)ethyl)pyridin-4-yl)phenyl)amino)ethyl)-1H-pyrazole-5-carboxamide] | 251 |
| Cn1nccc1C(=O)N[C@H](C(=O)Nc1ccc(-c2cc[nH]c(=O)c2)cc1)[C@H]1CC[C@H](C)CC1 [Example 87, 1-Methyl-N—((S)-1-((1r,4S)-4-methylcyclohexyl)-2-oxo-2-((4-(2-oxo-1,2-dihydropyridin-4-yl)phenyl)amino)ethyl)-1H-pyrazole-5-carboxamide] | 501 |
| Cn1nccc1C(=O)N[C@H](C(=O)Nc1ccc(-c2cccc3nccn23)cc1)[C@H]1CC[C@H](C)CC1 [Example 88, N—((S)-2-((4-(Imidazo[1,2-a]pyridin-5-yl)phenyl)amino)-1-((1r,4S)-4-methylcyclohexyl)-2-oxoethyl)-1-methyl-1H-pyrazole-5-carboxamide] | 398 |
| Cc1cncc(C)c1-c1ccc(NC(=O)[C@@H](NC(=O)c2ccnn2C)[C@H]2CC[C@H](C)CC2)nc1 [Example 90, N—((S)-2-((3′,5′-Dimethyl-[3,4′-bipyridin]-6-yl)amino)-1-((1r,4S)-4-methylcyclohexyl)-2-oxoethyl)-1-methyl-1H-pyrazole-5-carboxamide] | 63.1 |
| CCn1nccc1C(=O)N[C@H](C(=O)Nc1ccc(-c2ccc(=O)n(C)c2C)cn1)[C@H]1CC[C@H](C)CC1 [Example 91, N—((S)-2-((1′,2′-Dimethyl-6′-oxo-1′,6′-dihydro-[3,3′-bipyridin]-6-yl)amino)-1-((1r,4S)-4-methylcyclohexyl)-2-oxoethyl)-1-ethyl-1H-pyrazole-5-carboxamide] | 251 |
| CCn1nccc1C(=O)N[C@H](C(=O)Nc1ccc(-c2c(C)cncc2C)cn1)[C@H]1CC[C@H](C)CC1 [Example 92, N—((S)-2-((3′,5′-Dimethyl-[3,4′-bipyridin]-6-yl)amino)-1-((1r,4S)-4-methylcyclohexyl)-2-oxoethyl)-1-ethyl-1H-pyrazole-5-carboxamide] | 20 |
| Cn1nccc1C(=O)N[C@H](C(=O)Nc1ccc(C2CCOCC2)cc1)[C@H]1CC[C@H](C)CC1 [Example 93, 1-Methyl-N—((S)-1-((1r,4S)-4-methylcyclohexyl)-2-oxo-2-((4-(tetrahydro-2H-pyran-4-yl)phenyl)amino)ethyl)-1H-pyrazole-5-carboxamide] | 50.1 |
| Cn1nccc1C(=O)N[C@H](C(=O)Nc1ccc(C2(O)CCOCC2)cc1)[C@H]1CC[C@H](C)CC1 [Example 94, N—((S)-2-((4-(4-Hydroxytetrahydro-2H-pyran-4-yl)phenyl)amino)-1-((1r,4S)-4-methylcyclohexyl)-2-oxoethyl)-1-methyl-1H-pyrazole-5-carboxamide] | 126 |
| Cn1nccc1C(=O)N[C@H](C(=O)Nc1ccc(C2=CCOCC2)cc1)[C@H]1CC[C@H](C)CC1 [Example 95, N—((S)-2-((4-(3,6-Dihydro-2H-pyran-4-yl)phenyl)amino)-1-((1r,4S)-4-methylcyclohexyl)-2-oxoethyl)-1-methyl-1H-pyrazole-5-carboxamide] | 100 |
| Cc1noc(C)c1-c1ccc(NC(=O)[C@@H](NC(=O)c2ccnn2C)[C@H]2CC[C@H](C)CC2)cc1 [Example 96, N—((S)-2-((4-(3,5-Dimethylisoxazol-4-yl)phenyl)amino)-1-((1r,4S)-4-methylcyclohexyl)-2-oxoethyl)-1-methyl-1H-pyrazole-5-carboxamide] | 50.1 |
| Cc1noc(C)c1-c1ccc(NC(=O)[C@@H](NC(=O)c2ccnn2C)[C@H]2CC[C@H](C)CC2)nc1 [Example 97, N—((S)-2-((5-(3,5-Dimethylisoxazol-4-yl)pyridin-2-yl)amino)-1-((1r,4S)-4-methylcyclohexyl)-2-oxoethyl)-1-methyl-1H-pyrazole-5-carboxamide] | 79.4 |
